Measured values: patent US20250152473A1, “STABLE PLINABULIN FORMULATIONS AND METHODS OF THEIR PREPARATION AND USE” (BeyondSpring Pharmaceuticals, Inc., priority 2022, published 2025)

Tests used:
[1] = Light sensitivity study of solid plinabulin; format: physicochemical
Source text: Table 8 illustrates the stability of solid plinabulin in a light sensitivity study.

[2] = Stress test of solid plinabulin, 30 days light storage vs dark control; format: physicochemical
Source text: This comparative example reports a plinabulin stress test of solid plinabulin showing relative stability to light storage for 30 days. […]

[3] = solid, minimum of 1.2 million LUX hours and 200 watts/square meter

CC(C)(C)c1[nH]cnc1/C=c1\[nH]c(=O)/c(=C/c2ccccc2)[nH]c1=O [Plinabulin, (3Z,6Z)-3-Benzylidene-6-{[5-(2-methyl-2-propanyl)-1H-imidazol-4-yl]methylene}-2,5-piperazinedione]
Light sensitivity ([1]; solid plinabulin): not light sensitive | Appearance ([1]; solid, Dark Control): Yellow Solid. | HPLC (% AUC) at 214 nm ([1]; solid, Dark Control): 99.3% AUC | HPLC (% AUC) at 250 nm ([1]; solid, Dark Control): 99.5% AUC | HPLC (% AUC) at 370 nm ([1]; solid, Dark Control): 99.4% AUC | Impurity at 214 nm, rrt 0.86 ([1]; solid, Dark Control): 0.21% @rrt 0.86 | Impurity at 214 nm, rrt 0.97 ([1]; solid, Dark Control): 0.33% @rrt 0.97 | Impurity at 214 nm, rrt 1.17 ([1]; solid, Dark Control): 0.06% @rrt 1.17 | Impurity at 214 nm, rrt 1.27 ([1]; solid, Dark Control): 0.04% @rrt 1.27 | KF ([1]; solid, Dark Control): 5.1% | Single impurity >1% AUC at 214 nm ([1]; solid, Dark Control): No single impurity | Appearance ([1]; solid, Time 0): Yellow Solid. | HPLC (% AUC) at 214 nm ([1]; solid, Time 0): 99.2% AUC | HPLC (% AUC) at 250 nm ([1]; solid, Time 0): 99.4% AUC | HPLC (% AUC) at 370 nm ([1]; solid, Time 0): 99.4% AUC | Impurity at 214 nm, rrt 0.86 ([1]; solid, Time 0): 0.21% @rrt 0.86 | Impurity at 214 nm, rrt 0.96 ([1]; solid, Time 0): 0.36% @rrt 0.96 | Impurity at 214 nm, rrt 1.14 ([1]; solid, Time 0): 0.06% @rrt 1.14 | Impurity at 214 nm, rrt 1.18 ([1]; solid, Time 0): 0.05% @rrt 1.18 | Impurity at 214 nm, rrt 1.19 ([1]; solid, Time 0): 0.02% @rrt 1.19 | Impurity at 214 nm, rrt 1.28 ([1]; solid, Time 0): 0.02% @rrt 1.28 | KF ([1]; solid, Time 0): 5.1% | Single impurity >1% AUC at 214 nm ([1]; solid, Time 0): No single impurity | Appearance [1, 3]: Yellow Solid. | HPLC (% AUC) at 214 nm [1, 3]: 99.4% AUC | HPLC (% AUC) at 250 nm [1, 3]: 99.4% AUC | HPLC (% AUC) at 370 nm [1, 3]: 99.5% AUC | Impurity at 214 nm, rrt 0.40 [1, 3]: 0.02% @rrt 0.40 | Impurity at 214 nm, rrt 0.49 [1, 3]: 0.05% @rrt 0.49 | Impurity at 214 nm, rrt 0.68 [1, 3]: 0.02% @rrt 0.68 | Impurity at 214 nm, rrt 0.86 [1, 3]: 0.08% @rrt 0.86 | Impurity at 214 nm, rrt 0.97 [1, 3]: 0.29% @rrt 0.97 | Impurity at 214 nm, rrt 1.17 [1, 3]: 0.05% @rrt 1.17 | Impurity at 214 nm, rrt 1.27 [1, 3]: 0.02% @rrt 1.27 | KF [1, 3]: 5.0% | Single impurity >1% AUC at 214 nm [1, 3]: No single impurity | Alcohol Impurity by HPLC ([2]; Control Sample (dark), 0 days): 0.02% | Amide Impurity by HPLC ([2]; Control Sample (dark), 0 days): 0.02% | Appearance ([2]; Control Sample (dark), 0 days): Yellow | Assay by HPLC ([2]; Control Sample (dark), 0 days): 98.9% w/w | Cyano Impurity by HPLC ([2]; Control Sample (dark), 0 days): 0.1% | De-Carboxylate Impurity by HPLC ([2]; Control Sample (dark), 0 days): 0.1% | Ether Impurity by HPLC ([2]; Control Sample (dark), 0 days): 0.02% | Impurity-489-1 by HPLC ([2]; Control Sample (dark), 0 days): 0.1% | Impurity-489-2 by HPLC ([2]; Control Sample (dark), 0 days): 0.1% | Other Unspecified Impurity by HPLC ([2]; Control Sample (dark), 0 days): 0.02% | Total Impurities by HPLC ([2]; Control Sample (dark), 0 days): 0.3% | Water ([2]; Control Sample (dark), 0 days): 0.1% | Alcohol Impurity by HPLC ([2]; Control Sample (dark), 5 days): 0.02% | Amide Impurity by HPLC ([2]; Control Sample (dark), 5 days): 0.02% | Appearance ([2]; Control Sample (dark), 5 days): Yellow | Assay by HPLC ([2]; Control Sample (dark), 5 days): 98.42% w/w | Cyano Impurity by HPLC ([2]; Control Sample (dark), 5 days): 0.11% | De-Carboxylate Impurity by HPLC ([2]; Control Sample (dark), 5 days): 0.09% | Ether Impurity by HPLC ([2]; Control Sample (dark), 5 days): 0.02% | Impurity-489-1 by HPLC ([2]; Control Sample (dark), 5 days): 0.16% | Impurity-489-2 by HPLC ([2]; Control Sample (dark), 5 days): 0.02% | Other Unspecified Impurity by HPLC ([2]; Control Sample (dark), 5 days): 0.02% | Total Impurities by HPLC ([2]; Control Sample (dark), 5 days): 0.36% | Water ([2]; Control Sample (dark), 5 days): 0.05% | Alcohol Impurity by HPLC ([2]; Control Sample (dark), 10 days): 0.02% | Amide Impurity by HPLC ([2]; Control Sample (dark), 10 days): 0.02% | Appearance ([2]; Control Sample (dark), 10 days): Yellow | Assay by HPLC ([2]; Control Sample (dark), 10 days): 99.33% w/w | Cyano Impurity by HPLC ([2]; Control Sample (dark), 10 days): 0.12% | De-Carboxylate Impurity by HPLC ([2]; Control Sample (dark), 10 days): 0.09% | Ether Impurity by HPLC ([2]; Control Sample (dark), 10 days): 0.02% | Impurity-489-1 by HPLC ([2]; Control Sample (dark), 10 days): 0.12% | Impurity-489-2 by HPLC ([2]; Control Sample (dark), 10 days): 0.02% | Other Unspecified Impurity by HPLC ([2]; Control Sample (dark), 10 days): 0.02% | Total Impurities by HPLC ([2]; Control Sample (dark), 10 days): 0.32% | Water ([2]; Control Sample (dark), 10 days): 0.05% | Alcohol Impurity by HPLC ([2]; Control Sample (dark), 30 days): 0.02% | Amide Impurity by HPLC ([2]; Control Sample (dark), 30 days): 0.02% | Appearance ([2]; Control Sample (dark), 30 days): Yellow | Assay by HPLC ([2]; Control Sample (dark), 30 days): 99.29% w/w | Cyano Impurity by HPLC ([2]; Control Sample (dark), 30 days): 0.11% | De-Carboxylate Impurity by HPLC ([2]; Control Sample (dark), 30 days): 0.09% | Ether Impurity by HPLC ([2]; Control Sample (dark), 30 days): 0.02% | Impurity-489-1 by HPLC ([2]; Control Sample (dark), 30 days): 0.15% | Impurity-489-2 by HPLC ([2]; Control Sample (dark), 30 days): 0.02% | Other Unspecified Impurity by HPLC ([2]; Control Sample (dark), 30 days): 0.05% | Total Impurities by HPLC ([2]; Control Sample (dark), 30 days): 0.36% | Water ([2]; Control Sample (dark), 30 days): 0.05% | Alcohol Impurity by HPLC ([2]; Photo Sample, 0 days): 0.02% | Amide Impurity by HPLC ([2]; Photo Sample, 0 days): 0.02% | Assay by HPLC ([2]; Photo Sample, 0 days): 98.9% w/w | Cyano Impurity by HPLC ([2]; Photo Sample, 0 days): 0.1% | De-Carboxylate Impurity by HPLC ([2]; Photo Sample, 0 days): 0.1% | Ether Impurity by HPLC ([2]; Photo Sample, 0 days): 0.02% | Impurity-489-1 by HPLC ([2]; Photo Sample, 0 days): 0.1% | Impurity-489-2 by HPLC ([2]; Photo Sample, 0 days): 0.1% | Other Unspecified Impurity by HPLC ([2]; Photo Sample, 0 days): 0.02% | Total Impurities by HPLC ([2]; Photo Sample, 0 days): 0.3% | Water ([2]; Photo Sample, 0 days): 0.1% | Alcohol Impurity by HPLC ([2]; Photo Sample, 5 days): 0.02% | Amide Impurity by HPLC ([2]; Photo Sample, 5 days): 0.02% | Assay by HPLC ([2]; Photo Sample, 5 days): 99.37% w/w | Cyano Impurity by HPLC ([2]; Photo Sample, 5 days): 0.11% | De-Carboxylate Impurity by HPLC ([2]; Photo Sample, 5 days): 0.09% | Ether Impurity by HPLC ([2]; Photo Sample, 5 days): 0.02% | Impurity-489-1 by HPLC ([2]; Photo Sample, 5 days): 0.10% | Impurity-489-2 by HPLC ([2]; Photo Sample, 5 days): 0.05% | Other Unspecified Impurity by HPLC ([2]; Photo Sample, 5 days): 0.02% | Total Impurities by HPLC ([2]; Photo Sample, 5 days): 0.3% | Water ([2]; Photo Sample, 5 days): 0.05% | Alcohol Impurity by HPLC ([2]; Photo Sample, 10 days): 0.02% | Amide Impurity by HPLC ([2]; Photo Sample, 10 days): 0.02% | Assay by HPLC ([2]; Photo Sample, 10 days): 99.36% w/w | Cyano Impurity by HPLC ([2]; Photo Sample, 10 days): 0.12% | De-Carboxylate Impurity by HPLC ([2]; Photo Sample, 10 days): 0.08% | Ether Impurity by HPLC ([2]; Photo Sample, 10 days): 0.02% | Impurity-489-1 by HPLC ([2]; Photo Sample, 10 days): 0.07% | Impurity-489-2 by HPLC ([2]; Photo Sample, 10 days): 0.05% | Other Unspecified Impurity by HPLC ([2]; Photo Sample, 10 days): 0.02% | Total Impurities by HPLC ([2]; Photo Sample, 10 days): 0.27% | Water ([2]; Photo Sample, 10 days): 0.05% | Alcohol Impurity by HPLC ([2]; Photo Sample, 30 days): 0.02% | Amide Impurity by HPLC ([2]; Photo Sample, 30 days): 0.02% | Assay by HPLC ([2]; Photo Sample, 30 days): 99.17% w/w | Cyano Impurity by HPLC ([2]; Photo Sample, 30 days): 0.11% | De-Carboxylate Impurity by HPLC ([2]; Photo Sample, 30 days): 0.09% | Ether Impurity by HPLC ([2]; Photo Sample, 30 days): 0.02% | Impurity-489-1 by HPLC ([2]; Photo Sample, 30 days): 0.06% | Impurity-489-2 by HPLC ([2]; Photo Sample, 30 days): 0.05% | Other Unspecified Impurity by HPLC ([2]; Photo Sample, 30 days): 0.1% | Total Impurities by HPLC ([2]; Photo Sample, 30 days): 0.6% | Water ([2]; Photo Sample, 30 days): 0.05%
